Converted amounts (≈) assume the structure as drawn.
What was measured:
[1] = Inhibition of recombinant mouse GALK1 using ATP as substrate incubated for 1 hr and measured by Kinase-Glo assay
[2] = Inhibition of human GALK1 K252A/E253A double mutant; details: read-out: IC50
[3] = species: Homo sapiens; experiment: Inhibition of human GALK1 K252A/E253A double mutant relative to control; set-up: concentration or dose not given beside the values; details: concentration not given here
[4] = Stability of compound in rat microsomes assessed as half-life; assay type: ADME, Microsome
[5] = Permeability of compound by PAMPA assay; assay type: ADME; details: for Papp: read-out: permeability
[6] = Kinetic aqueous solubility of the compound; assay type: physicochemical; details: buffer; read-out: Kinetic_solubility

Row | SMILES | IC50 ([1]; read-out: IC50) [µM] | IC50 [2] [µM] | inhibition [3] [%] | half-life [4] [min] | Papp [5] [×10⁻⁶ cm/s] | solubility kinetic [6] [µg/mL] | IC50 [1] | permeability [5]
1 | CC1=C(C(=O)Nc2cc(C(=O)O)ccn2)C(c2ccccc2Cl)N=C(Nc2nc3ccc(Cl)cc3o2)N1 (configuration not stated) | 6.11 | 2.25 | 100 | > 30 | < 10 | 6.3 (≈ 11.7 µM) | – | –
2 | CC1=C(C(=O)NCc2cncs2)C(c2ccccc2Cl)N=C(Nc2nc3ccccc3o2)N1 (configuration not stated) | 12.2 | 1.2 | 84 | 6.43 | – | < 1 | – | –
3 | COc1ccc2oc(NC3=NC(c4ccccc4Cl)C(C(=O)Nc4cc(C(=O)O)ccn4)=C(C)N3)nc2c1 (configuration not stated) | 12.2 | 2 | 100 | > 30 | < 1 | > 79 | – | –
4 | CC1=C(C(=O)Nc2ncc(C(=O)O)s2)C(c2ccccc2Cl)N=C(Nc2nc3ccccc3o2)N1 (configuration not stated) | – | 1.7 | 99 | > 30 | < 1 | > 75 | – | –
5 | CC1=C(C(=O)NCc2cncn2C)C(c2ccccc2Cl)N=C(Nc2nc3ccccc3o2)N1 (configuration not stated) | 6.85 | 1.4 | 98 | 8.87 | – | 42 (≈ 88.2 µM) | – | –
6 | CC1=C(C(=O)Nc2nncs2)C(c2ccccc2Cl)N=C(Nc2nc3ccccc3o2)N1 (configuration not stated) | 7.69 | 3.4 | 96 | > 30 | – | < 1 | – | –
7 | CC1=C(C(=O)Nc2cc(C(=O)O)ccn2)C(c2cccc(C(F)(F)F)c2Cl)N=C(Nc2nc3ccc(F)cc3o2)N1 (configuration not stated) | 27.3 | 2.4 | 97 | > 30 | < 10 | 70.1 (≈ 119 µM) | – | –
8 | CC1=C(C(=O)NCc2cn(C)cn2)C(c2ccccc2Cl)N=C(Nc2nc3ccccc3o2)N1 (racemic) | 7.69 | 0.77 | 90 | 14.6 | – | 26.6 (≈ 55.9 µM) | – | –
9 | CC1=C(C(=O)Nc2cc(C(=O)O)ccn2)C(c2cccc(F)c2Cl)N=C(Nc2nc3ccc(F)cc3o2)N1 (configuration not stated) | 15.3 | 1.8 | 100 | < 10 | < 10 | < 10000 | – | –
10 | CC1=C(C(=O)Nc2cc(C(=O)O)ccn2)C(c2ccccc2Cl)N=C(Nc2nc3ccc(C)cc3o2)N1 (configuration not stated) | 17.2 | 6.9 | 100 | > 30 | < 1 | 34.4 (≈ 66.6 µM) | – | –
11 | CC1=C(C(=O)Nc2cc(C(=O)O)ccn2)C(c2cccc(C(N)=O)c2)N=C(Nc2nc3ccc(F)cc3o2)N1 (configuration not stated) | 21.7 | 3.8 | 90 | > 30 | < 1 | > 78 | – | –
12 | CC1=C(C(=O)Nc2nnc(C)s2)C(c2ccccc2Cl)N=C(Nc2nc3ccccc3o2)N1 (configuration not stated) | 10.7 | 3.9 | 95 | > 30 | – | < 1 | – | –
13 | CC1=C(C(=O)Nc2cc(C(=O)O)ccn2)C(c2ccccc2Cl)N=C(Nc2nc3c(C)cccc3o2)N1 (configuration not stated) | 17.2 | 5.5 | 100 | > 30 | < 1.3 | 3.5 (≈ 6.77 µM) | – | –
14 | CC1=C(C(=O)Nc2cc(C(=O)O)ccn2)C(c2ccccc2Cl)N=C(Nc2nc3c(F)cccc3o2)N1 (configuration not stated) | 21.7 | 3.1 | 94 | > 30 | > 100 | < 10000 | – | –
15 | CC1=C(C(=O)Nc2cc(C(=O)O)ccn2)C(c2ccccc2Cl)N=C(Nc2nc3cc(Cl)ccc3o2)N1 (configuration not stated) | 6.11 | 1.7 | 100 | > 30 | < 1 | 35.2 (≈ 65.5 µM) | – | –
16 | CC1=C(C(=O)Nc2cc(C(=O)O)ccn2)C(c2ccc(F)cc2Cl)N=C(Nc2nc3ccc(F)cc3o2)N1 (configuration not stated) | 4.32 | 0.258 | 100 | > 30 | < 1 | 40.6 (≈ 75.3 µM) | – | –

Row | SMILES | IC50 ([1]; read-out: IC50) [µM] | IC50 [2] [µM] | inhibition [3] [%] | half-life [4] [min] | Papp [5] [×10⁻⁶ cm/s] | solubility kinetic [6] [µg/mL] | IC50 [1] | permeability [5]
17 | CC1=C(C(=O)NCc2nccn2C)C(c2ccccc2Cl)N=C(Nc2nc3ccccc3o2)N1 (configuration not stated) | 13.7 | 11 | 94 | 6.42 | > 1110 | 23 (≈ 48.3 µM) | – | –
18 | CC1=C(C(=O)Nc2cc(C(=O)O)ccn2)C(c2ccccc2Cl)N=C(Nc2nc3cccc(Cl)c3o2)N1 (configuration not stated) | 9.68 | 1 | 100 | > 30 | < 1 | 57.5 (≈ 107 µM) | – | –
19 | CC1=C(C(=O)Nc2cc(C(=O)O)ccn2)C(c2ccccc2Br)N=C(Nc2nc3ccc(F)cc3o2)N1 (configuration not stated) | 3.85 | 0.235 | 100 | > 30 | < 10 | 36 (≈ 63.7 µM) | – | –
20 | CC1=C(C(=O)Nc2cc(C(=O)O)ccn2)C(c2ccc(C)cc2Cl)N=C(Nc2nc3ccc(F)cc3o2)N1 (racemic) | 3.06 | 0.136 | 100 | > 30 | – | 2.8 (≈ 5.23 µM) | – | –
21 | CC1=C(C(=O)Nc2cc(C(=O)O)ccn2)C(c2ccccc2Cl)N=C(Nc2nc3c(Cl)cccc3o2)N1 (configuration not stated) | 13.7 | 5.8 | 85 | > 30 | < 1.3 | < 1 | – | –
22 | CC1=C(C(=O)Nc2cc(C(=O)O)ccn2)C(c2cccc(Cl)c2Cl)N=C(Nc2nc3ccc(F)cc3o2)N1 (configuration not stated) | 21.7 | 3.6 | 100 | > 30 | < 10 | 55.5 (≈ 99.9 µM) | – | –
23 | COc1cccc(C2N=C(Nc3nc4ccc(F)cc4o3)NC(C)=C2C(=O)Nc2cc(C(=O)O)ccn2)c1Cl (configuration not stated) | 19.3 | 5.4 | 100 | > 30 | < 1 | > 81 | – | –
24 | CC1=C(C(=O)Nc2cc(C(=O)O)ccn2)C(c2ccccc2Cl)N=C(Nc2nc3cccc(F)c3o2)N1 (configuration not stated) | 8.63 | 1 | 100 | > 30 | < 1 | > 77 | – | –
25 | COc1cccc2nc(NC3=NC(c4ccccc4Cl)C(C(=O)Nc4cc(C(=O)O)ccn4)=C(C)N3)oc12 (configuration not stated) | – | > 15 | 80 | > 30 | < 1 | 65.7 (≈ 123 µM) | Not Active | –
26 | CC1=C(C(=O)Nc2cc(C(=O)O)ccn2)C(c2cccc(C(F)(F)F)c2)N=C(Nc2nc3ccc(F)cc3o2)N1 (configuration not stated) | – | > 15 | 90 | > 30 | < 1 | 60.1 (≈ 108 µM) | Not Active | –
27 | CC1=C(C(=O)Nc2ccc(C(=O)O)cc2)C(c2ccccc2Cl)N=C(Nc2nc3ccccc3o2)N1 (configuration not stated) | 6.11 | 1.4 | 100 | > 30 | – | < 1 | – | –
28 | CC1=C(C(=O)NCc2cnn(C)c2)C(c2ccc(C)cc2Cl)N=C(Nc2nc3cccc(N)c3o2)N1 (configuration not stated) | 2.17 | 0.047 | – | 14.1 | – | 4.47 (≈ 8.85 µM) | – | 25.28 10^-6 cm/s
29 | CC1=C(C(=O)Nc2cc(C(=O)O)ccn2)C(c2ccccc2Cl)N=C(Nc2nc3ccccc3o2)N1 (racemic) | 6.85 | 0.97 | 88 | > 30 | – | > 74 | – | –
30 | CC1=C(C(=O)NCc2cnn(C)c2)C(c2ccc(C)cc2Cl)N=C(Nc2nc3ccc(F)c(C(=O)O)c3o2)N1 (configuration not stated) | 21.7 | – | – | > 30 | < 1 | 26.3 (≈ 47.6 µM) | – | –
31 | CC1=C(C(=O)Nc2nnc(-c3cccnc3)s2)C(c2ccccc2Cl)N=C(Nc2nc3cc(F)ccc3o2)N1 (configuration not stated) | 19.3 | – | – | > 30 | < 1.5 | < 1 | – | –

— ChEMBL document CHEMBL5050861 (2021)
